Source: patent publication US4857507A, “Angiotensinogen analogs” (Abbott Laboratories, priority 1987, dated 1989)

Molecular target: T1, human renal renin (Homo sapiens, UniProt P00797)
T1 construct: human renal renin, free from acid proteolytic activity; from tissue; host or cells: human kidney (from the word 'renal')
T1 sequence (P00797 67-406): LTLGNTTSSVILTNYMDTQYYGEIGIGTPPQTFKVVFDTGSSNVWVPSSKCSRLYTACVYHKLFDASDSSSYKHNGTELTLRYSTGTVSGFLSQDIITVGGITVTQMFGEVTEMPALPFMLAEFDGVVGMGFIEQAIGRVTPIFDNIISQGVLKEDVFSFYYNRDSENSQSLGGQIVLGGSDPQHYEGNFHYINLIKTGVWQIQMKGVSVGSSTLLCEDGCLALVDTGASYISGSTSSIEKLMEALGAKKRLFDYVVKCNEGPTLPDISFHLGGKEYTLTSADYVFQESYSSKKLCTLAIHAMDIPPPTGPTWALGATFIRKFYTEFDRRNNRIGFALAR
Test: inhibition of human renal renin in vitro, angiotensin I formed measured by radioimmunoassay
Type: biochemical
Conditions: 37° C., pH 6.0; for IC50: human renal renin with human renin substrate (angiotensinogen)
Procedure: At the end of the incubation, the amount of angiotensin I formed is measured by radioimmunoassay and the molor concentration required to cause 50% inhibition, expressed as the IC50, is calculated.

Compound | IC50 | % inhibition at 10^-5 M (compound at 10^-5 M, human renin substrate (angiotensinogen))
CC(C)CCC(=O)CC[C@H](O)[C@H](CC(C)C)NC(=O)[C@H](C)NC(=O)[C@H](Cc1ccccc1)NC(=O)OC(C)(C)C [Example 30, Boc-Phe-Ala amide of (4S,5S)-4-amino-2,11-dimethyl-5-hydroxy-8-oxododecane] | 2500 nM | –
CC(C)CCC(=O)NC(CC(O)C(CC(C)C)NC(=O)[C@H](C)NC(=O)[C@H](Cc1ccccc1)NC(=O)OC(C)(C)C)c1ccccc1 (stereo partly drawn) [Example 42, Boc-Phe-Ala amide of 4-amino-3-hydroxy-6-methyl-1-(4-methylvaleryl)amino-1-phenylheptane] | – | 41%
CC(C)CC(NC(=O)C(Cc1ccccc1)NC(=O)OC(C)(C)C)C(=O)N[C@@H](CC1CCCCC1)C(=O)C(F)(F)CS(=O)(=O)C(C)C (stereo partly drawn) [Example 95, Boc-Phe-Leu amide of (4S)-3-oxo-4-amino-2,2-difluoro-1-isopropylsulfonyl-5-cyclohexylpentane] | 1 nM | –
CC(C)C[C@H](NC(=O)C(C)NC(=O)C(Cc1ccccc1)NC(=O)OC(C)(C)C)[C@@H](O)CCSCCc1ccccc1 (stereo partly drawn) [Example 16, Boc-Phe-Ala amide of (3S,4S)-4-amino-3-hydroxy-6-methyl-1-phenethylmercaptoheptane] | 4000 nM | –
CC(C)CCNC(=O)C(CC(O)C(CC(C)C)NC(=O)C(C)NC(=O)C(Cc1ccccc1)NC(=O)OC(C)(C)C)c1ccccc1 (stereo not drawn) [Example 46, Boc-Phe-Ala amide of 5-amino-4-hydroxy-77-methyl-2-phenyloctanoic acid isoamyl amide] | 3000 nM | –
CC(C)C[C@H](NC(=O)[C@H](C)NC(=O)[C@H](Cc1ccccc1)NC(=O)OC(C)(C)C)[C@@H](O)CCS(=O)(=O)CCc1ccccc1 [Example 18, Boc-Phe-Ala amide of (3S,4S)-4-amino-3-hydroxy-6-methyl-1-phenethylsulfonylheptane] | 2000 nM | –
CC(C)CC(NC(=O)C(Cc1ccccc1)NC(=O)OC(C)(C)C)C(=O)N[C@@H](CC1CCCCC1)C(=O)C(F)(F)CSC(C)C (stereo partly drawn) [Example 93, Boc-Phe-Leu amide of (4S)-3-oxo-4-amino-2,2-difluoro-1-isopropylmercapto-5-cyclohexylpentane] | 2.5 nM | –
CC(C)CC(NC(=O)C(Cc1ccccc1)NC(=O)OC(C)(C)C)C(=O)N[C@@H](CC1CCCCC1)[C@@H](O)C(F)(F)CS(=O)(=O)C(C)C (stereo partly drawn) [Example 86, Boc-Phe-Leu amide of (3R,4S)-3-hydroxy-4-amino-2,2-difluoro-1-isopropylsulfonyl-5-cyclohexylpentane] | 10 nM | –
